Experimental data taken from publication PMC12582971, “NeuproGemp, a polyphenol-rich botanical formula, ameliorates Alzheimer’s-like pathology in APP/PS1 mice via inhibition of human glutaminyl cyclase” (Frontiers in Pharmacology, 2025).

Target: T1, human glutaminyl cyclase (hQC) (Homo sapiens, UniProt Q16769)
T1 construct: covering residues Ala33 to Leu361, was cloned into the pQE-80L expression vector; polyhistidine tag; made in house; host or cells: E. coli BL21 (DE3)
Assay: hQC inhibition assay (coupled spectrophotometric, H-Gln-Gln-OH substrate)
Type: biochemical
Conditions: for inhibitory effect on hQC (in words): dose-response assay; for IC50: 0.1 μM hQC, 1 mM H-Gln-Gln-OH, 25 °C, pH 8.0, mean ± SD, three experiments, read-out: IC50 against hQC
Protocol: The coding sequence of human glutaminyl cyclase (hQC), covering residues Ala33 to Leu361, was cloned into the pQE-80L expression vector utilizing the restriction sites BamHI and HindIII. This recombinant plasmid was introduced into E. coli BL21 (DE3) cells through heat shock transformation. For protein expression, the transformed E. coli cells were grown in Luria-Bertani (LB) medium supplemented with 100 mg/L ampicillin at 37 °C. Once the optical density at 600 nm (OD600) reached 0.6, protein expression was induced using 0.1 mM isopropyl β-D-1-thiogalactopyranoside (IPTG), and the culture was incubated at 24 °C for 48 h, optimizing for soluble protein yield under reduced temperature conditions. After induction, the cells were harvested by centrifugation at 6,000 rpm for 20 min. The resulting cell pellet was resuspended in a lysis buffer containing 50 mM Tris-HCl (pH 8.5), 150 mM NaCl, and 20 mM imidazole. Cell disruption was performed using high-pressure homogenization via a microfluidizer (Microfluidics). The lysate was clarified through centrifugation, and the soluble protein fraction was purified using nickel-nitrilotriacetic acid (Ni-NTA) affinity chromatography, leveraging the polyhistidine tag for selective binding to the resin. The bound hQC protein was eluted and further purified using standard chromatographic techniques.
The inhibitory effects of various compounds on human glutaminyl cyclase (hQC) were assessed using a validated spectrophotometric assay. In this assay, glutamic dehydrogenase (EC 1.4.1.3; Sigma-Aldrich) was utilized as a coupling enzyme to indirectly quantify hQC activity, employing H-Gln-Gln-OH (Bachem) as the specific substrate. The reaction mixture consisted of 50 mM Tris-HCl (pH 8.0), 0.25 mM NADH, 30 U of glutamic dehydrogenase, 15 mM α-ketoglutaric acid, and 0.1 μM hQC. Inhibitors were introduced to the reaction mixture and allowed to incubate for 5 min at 25 °C to promote interaction with the enzyme. The enzymatic reaction was initiated by adding 1 mM of the substrate, and the progression was monitored by measuring the absorbance at 340 nm, corresponding to the oxidation of NADH. The IC50 values for the inhibitors were calculated by plotting initial reaction rates against the logarithmic concentrations of the inhibitors. Nonlinear regression fitting was conducted using GraphPad Prism 6 software, enabling accurate quantification of the inhibitors’ potencies and facilitating a detailed analysis of their inhibitory effects on hQC.
The enzymatic activity of recombinant hQC was measured using a coupled spectrophotometric assay with H-Gln-Gln-OH as substrate and glutamic dehydrogenase as a coupling enzyme. […] Initial reaction rates were monitored by measuring NADH oxidation at 340 nm, and IC50 values were calculated using nonlinear regression in GraphPad Prism 6. Data are presented as mean ± SD from three independent experiments. Lower IC50 values indicate stronger inhibition of hQC activity.

T1 sequence (Q16769 33-361): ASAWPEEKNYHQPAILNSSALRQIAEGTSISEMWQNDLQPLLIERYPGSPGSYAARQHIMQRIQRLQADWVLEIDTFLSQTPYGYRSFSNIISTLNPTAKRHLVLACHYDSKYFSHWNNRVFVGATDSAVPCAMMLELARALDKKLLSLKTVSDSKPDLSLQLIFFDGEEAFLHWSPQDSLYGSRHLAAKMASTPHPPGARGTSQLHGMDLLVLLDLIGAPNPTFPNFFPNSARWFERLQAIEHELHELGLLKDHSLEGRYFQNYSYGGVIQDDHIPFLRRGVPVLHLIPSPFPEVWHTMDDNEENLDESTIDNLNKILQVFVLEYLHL

Compound | hQC activity suppression at 100 μM | inhibitory effect on hQC (in words) | IC50 [nM]
O=C(/C=C/c1ccccc1)OC[C@H]1O[C@@H](OC(=O)c2cc(O)c(O)c(O)c2)[C@H](O)[C@@H](O)[C@@H]1O [1-o-galloyl-6-o-cinnamoylglucose] | less than 50% | minimal to no significant inhibition | 
O=C(OCC1OC(OC(=O)c2cc(O)c(O)c(O)c2)C(O)C(OC(=O)c2cc(O)c(O)c(O)c2)C1O)c1cc(O)c(O)c(O)c1 (stereo not drawn) [GG3, 1,3,6-Trigalloylglucose] |  | only weak inhibitory effects | 4190
O=C(OCC1OC(OC(=O)c2cc(O)c(O)c(O)c2)C(OC(=O)c2cc(O)c(O)c(O)c2)C(OC(=O)c2cc(O)c(O)c(O)c2)C1O)c1cc(O)c(O)c(O)c1 (stereo not drawn) [GG4, 1,2,3,6-Tetragalloylglucose] |  |  | 1430
OCc1ccc(O[C@@H]2O[C@H](CO)[C@@H](O)[C@H](O)[C@H]2O)cc1 [Gastrodin] | less than 50% | only weak inhibitory effects | 
C[C@@]12C[C@@]3(O)O[C@@H](O1)[C@]1(COC(=O)c4ccccc4)[C@H]3C[C@@]12O[C@@H]1O[C@H](CO)[C@@H](O)[C@H](O)[C@H]1O [Paeoniflorin] | less than 50% | minimal to no significant inhibition | 
